Measured values as given in patent US20090170851A1, “Chroman Compounds” (priority 2005, published 2009).

SMILES: CCC(=O)N1CCN(c2ccc(NC(=O)C3CCc4cc(F)cc(N5CCN(C)CC5)c4O3)cc2)CC1 (stereo not drawn) [Example 32, 6-fluoro-8-(4-methylpiperazin-1-yl)-N-(4-(4-proprionyl-piperazin-1-yl)phenyl)chroman-2-carboxamide]
- melting point: 160 to 165 °C

SMILES: COc1cc2c(c(N3CCN(C)CC3)c1)OC(C(=O)Nc1ccc(N3CCN(C)CC3)cc1)CC2 (stereo not drawn) [Example 35, 6-methoxy-8-(4-methylpiperazin-1-yl)-N-(4-(4-methylpiperazin-1-yl)phenyl)chroman-2-carboxamide]
- melting point: 180 to 190 °C

SMILES: CN1CCN(c2ccc(NC(=O)C3CCc4cc(F)cc(N5CCN(C)CC5)c4O3)cc2)CC1 (stereo not drawn) [Example 41, 6-fluoro-8-(4-methylpiperazin-1-yl)-N-(4-(4-methylpiperazin-1-yl)phenyl)chroman-2-carboxamide]
- melting point: 150 to 160 °C
